“Also recorded” adds a separate entry of the source.
Assays:
[1] = tested on: patient having symptomatic hypercalcemia; conditions: cited from earlier work
[2] = tested on: calvaria; assay: Bone resorption assay (calcium released into media by mouse calvaria); format: cell-based, mice (In:GP(s)), three to six day old; conditions: for calcium in the media: three days
Excerpt: Glutamine was obtained from Biofluids (Catalog No. 300). […] Heparin was obtained from Organon (1000 units/cc). […] Above factors were stored at -20 degrees centigrade.
Three to six day old mice (In:GP(s)) were obtained from the small animal section of the Veterinarian Resources Branch of the National Institutes of Health. Calvaria were harvested and washed in 500 cc of Hank's Balanced Salt solution without calcium or magnesium (Catalog No. 320, Biofluids) with a stirring bar for one to one and a half hours. The calvaria were placed in 2cc of study media in 16 × 125 mm STYRENE tissue culture tubes (Catalog No. R605, Elkay Products, Inc.). Study media was made by mixing equal volumes of Media A and Media B and then adding the appropriate growth factors. […] The calcium in the media was determined after three days with an ABBOTT Bichromatic Analyzer 100.

[3] = when used at the levels herein taught; cited from earlier work
[4] = tested on: EGF cell surface receptors; conditions: cited from earlier work
[5] = cited from earlier work
[6] = tested on: TGF-B cell surface receptors; conditions: cited from earlier work
[7] = Plasma half life / plasma level; format: in vivo, human; conditions: after attainment of an effective plasma level
Excerpt: The term "plasma" as used herein refers to whole blood plasma having cell bodies spun out by centrifugation, or similar method. […] Chromatog., Vol. 8, pp. 1685-1696 (1985), hereby incorporated by reference.

[8] = tested on: PDGF cell surface receptors; conditions: cited from earlier work

calcitonin
response of hypercalcemia to calcitonin ([1]; same patient, before suramin): becoming refractory to treatment with calcitonin

Parathyroid Hormone - related protein (PTH-rp): Human PTH-related protein (PTH-RP) (1-34) (Catalog No. 6151; Peninsular Laboratories Incorporated)
calcium in the media ([2]; Example 3, FIG. 1C, calvaria plus PTH-rp 200 ng/ml, without suramin, n=10, media with calvaria 9.1 +/- 0.46, P=0.0015): 11.3 ± 0.34 mg/dL

Cc1ccc(C(=O)Nc2ccc(S(=O)(=O)O)c3cc(S(=O)(=O)O)cc(S(=O)(=O)O)c23)cc1NC(=O)c1cccc(NC(=O)Nc2cccc(C(=O)Nc3cc(C(=O)Nc4ccc(S(=O)(=O)O)c5cc(S(=O)(=O)O)cc(S(=O)(=O)O)c45)ccc3C)c2)c1 [suramin, 8,8'-[carbonylbis[imino-3,1-phenylenecarbonylimino(4-methyl-3,1-phenylene)carbonylimino]]bis-1,3,5-naphthalenetrisulfonic acid]
toxicity (in words) [3]: relatively low toxicity | blocking of EGF to cell surface receptors [4]: has been shown to block | duration of normocalcemia after suramin treatment ([1]; one patient, cancer metastatic to bone): remained normocalcemic for three months; also recorded: normalized for three months | normalization of hypercalcemia ([1]; suramin 350 mg/m^2 /d continuous infusion about two weeks, calcium levels before 14 to 15 mg/dL): became normocalcemic within about two weeks | plasma suramin level ([5]; 350 mg/m^2 /d continuous infusion for about two weeks, 20160 min): 250 to 300 µg/mL | half life in plasma (in words) ([5]; human plasma): long plasma half life | blocking of TGF-B to cell surface receptors [6]: has been shown to block | time for which effective plasma levels are maintained without readministering [7]: 6-8 weeks | blocking of PDGF to cell surface receptors [8]: has been shown to block | calcium in the media ([2]; Example 1, FIG. 1A, calvaria plus suramin 200 mcg/ml, mean +/- SEM, n=6, media with calvaria 9.88 +/- 1.49, P=0.0002): 7.05 ± 0.32 mg/dL | calcium in the media ([2]; Example 2, FIG. 1B, calvaria plus PTH (200 ng/ml) plus suramin 200 mcg/ml, n=6, vs. calvaria plus PTH P=0.0045): 8.33 ± 0.57 mg/dL | calcium in the media ([2]; Example 3, FIG. 1C, calvaria plus PTH-rp (200 ng/ml) plus suramin 200 mcg/ml, n=10, vs. calvaria plus PTH-rp P=0.0001): 7.26 ± 0.18 mg/dL | inhibition of bone resorption (conclusion in words) ([2]; based on Examples 1-3): possesses properties which allow it to inhibit bone resorption

From patent US5173509A (The United States of America as represented by the …, priority 1990, dated 1992)
